Assay results published in PMC12363342, “Investigating the N-terminal linker histone H1 subtypes as substrates for JmjC lysine demethylases” (RSC Chemical Biology, 2025).

Assays:
Conditions in all cases: 2 μM KDM, 10 μM H1/H3 peptide, 10 μM FAS, 100 μM LAA, 20 μM 2OG, 50 mM HEPES pH 7.5, 2 h, room temperature, M (mono-) initial methylation state
KDM3A = test: LC-MS demethylation activity assay, KDM3A; format: biochemical, human
Method: (§1) The substrate specificity of JmjC KDMs for H1 was examined using liquid chromatography coupled to mass spectrometry (LC-MS) assays. The H1 peptides (10 μM) were incubated with the recombinant KDM (2 μM) in HEPES buffer at pH 7.5 at room temperature for 2 h, in the presence of ferrous(II) ammonium sulfate (FAS, 10 μM), sodium ascorbate (LAA, 100 μM) and 2OG (20 μM), and then quenched with formic acid. N^ε-Methylated H3K9 and H3K36 peptides were used as positive controls (Fig. 3–5 and Fig. S2–S6).[26]
(§2) The catalytic domains of the JmjC KDMs used were recombinantly produced as reported in either Escherichia coli (KDM4AM1-L359,[38] KDM4DM1-L359,[39] KDM4EM1-R336,[30] KDM6BD1141–E1590[40] and KDM3CL2157-L2500) or Sf9 cells (KDM3AT515–S1317, KDM3B882–1761, and KDM5DM1-D775) as N-terminally His6-tagged proteins. […] To produce proteins, DNA sequences encoding for KDM3A, KDM3B and KDM5D were inserted into the pFB-LIC vector, containing a TEV-protease cleavable N-terminal 6x-histidine tag via ligation independent cloning (LIC). The resultant plasmids were transformed into baculovirus and Sf9 cells ([…]) which were infected with the virus stock. The cells were grown at 27 °C and 90 rpm for 70 h. Cells were then harvested and suspended in 100 mL of lysis buffer (50 mM HEPES-NaOH, pH 7.4, 500 mM NaCl, 20 mM imidazole, 0.5 mM Tris (2-carboxyethyl)phosphine (TCEP), 5% (v/v) glycerol). […] The supernatant was loaded onto a Ni-NTA gravity column, washed with 10 column volume of lysis buffer and eluted using the elution buffer (50 mM HEPES-NaOH, pH 7.4, 500 mM NaCl, 300 mM imidazole, 0.5 mM TCEP, 5% (v/v) glycerol). The eluted protein was further purified using S200 gel filtration column chromatography (50 mM HEPES-NaOH, pH 7.4, 150 mM NaCl, 0.5 mM TCEP and 5% glycerol). Protein purity was analysed by SDS-PAGE and further confirmed by mass spectrometry. Selected fractions were pooled, concentrated and stored at −80 °C.
(§3) All reagents were purchased from Sigma Aldrich and were of the highest grade available. Ferrous(II) ammonium sulfate (FAS) solutions were prepared freshly by dissolving FAS to 400 mM in 20 mM HCl with subsequent dilution to 1 mM using deionized water. Fresh 2OG (10 mM) and LAA (50 mM) solutions were prepared by dissolving the solids in deionised water. All enzyme reactions were performed in 384-well plates (Greiner Bio-One) with a final reaction volume of 50 μL. Substrate mixtures contained 50 mM HEPES pH 7.5, LAA (100 μM), FAS (10 μM), 2OG (20 μM) and an H1 isoform peptide (10 μM). Reactions were initiated by the addition of enzyme to a final concentration of 2.0 μM. After 2 h, the reactions were stopped by the addition of 5 μL of 10% (v/v) LC-MS grade formic acid (Fisher Scientific) to a final concentration of 1% (v/v). Product analyses were performed by liquid chromatography-mass spectrometry (LC-MS) using an Agilent 1290 infinity II LC system equipped with an Agilent 1290 multisampler and an Agilent 1290 high speed pump and connected to an Agilent 6550 accurate mass iFunnel quadrupole time of flight (Q-TOF) mass spectrometer. 1 μL of the reaction mixture was injected onto a 1.8 μm × 2.1 × 50 mm ZORBAX RRHD Eclipse Plus C18 column (Agilent). Solvent A consisted of HPLC grade water containing 0.1% (v/v) formic acid and solvent B consisted of MeCN containing 0.1% (v/v) formic acid. Peptides were separated using a stepwise gradient (0 min – 95% solvent A, 1.0 min – 80% solvent A, 3.0 min – 45% solvent A, 4.0 min – 45% solvent A, 5.0 min – 0% solvent A, 6.0 min – 0% solvent A, 7.0 min – 95% solvent A). This was followed by a 3 min post-run with 95% solvent A to re-equilibrate the column. All flow rates were 0.2 mL min^−1. A blank injection of HPLC grade water was carried out between each sample injection.

KDM3C = test: LC-MS demethylation activity assay, KDM3C; format: biochemical, human
Method: as §1, §2, §3

KDM6B = test: LC-MS demethylation activity assay, KDM6B; format: biochemical, human
Method: as §1, §2, §3

KDM3B = test: LC-MS demethylation activity assay, KDM3B; format: biochemical, human
Method: as §1, §2, §3

KDM4D = target: T1, KDM4D (Homo sapiens, UniProt Q6B0I6); test: LC-MS demethylation activity assay, KDM4D; format: biochemical
T1 construct: KDM4AM1-L359,[38]; KDM4DM1-L359,[39]; KDM4EM1-R336,[30]; His6 (N); made in house; host or cells: Escherichia coli
T1 sequence (Q6B0I6 1-359): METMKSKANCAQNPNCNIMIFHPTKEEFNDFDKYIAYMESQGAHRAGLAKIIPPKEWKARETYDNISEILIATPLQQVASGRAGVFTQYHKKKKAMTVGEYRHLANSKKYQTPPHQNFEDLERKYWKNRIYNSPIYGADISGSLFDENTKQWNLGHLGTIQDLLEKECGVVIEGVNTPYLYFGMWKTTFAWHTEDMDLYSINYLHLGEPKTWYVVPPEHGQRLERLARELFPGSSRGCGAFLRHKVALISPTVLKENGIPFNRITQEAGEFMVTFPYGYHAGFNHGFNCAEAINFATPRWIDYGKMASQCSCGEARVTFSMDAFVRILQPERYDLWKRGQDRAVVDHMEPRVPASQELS
Method: as §1, §2, §3

KDM4A = test: LC-MS demethylation activity assay, KDM4A; format: biochemical, human
Method: as §1, §2, §3

KDM5D = test: LC-MS demethylation activity assay, KDM5D; format: biochemical, human
Method: as §1, §2, §3

KDM4E = target: T2, KDM4E (Homo sapiens, UniProt B2RXH2); test: LC-MS demethylation activity assay, KDM4E; format: biochemical
T2 construct: KDM4DM1-L359,[39]; KDM4EM1-R336,[30]; His6 (N); made in house; host or cells: Escherichia coli
T2 sequence (B2RXH2 1-336): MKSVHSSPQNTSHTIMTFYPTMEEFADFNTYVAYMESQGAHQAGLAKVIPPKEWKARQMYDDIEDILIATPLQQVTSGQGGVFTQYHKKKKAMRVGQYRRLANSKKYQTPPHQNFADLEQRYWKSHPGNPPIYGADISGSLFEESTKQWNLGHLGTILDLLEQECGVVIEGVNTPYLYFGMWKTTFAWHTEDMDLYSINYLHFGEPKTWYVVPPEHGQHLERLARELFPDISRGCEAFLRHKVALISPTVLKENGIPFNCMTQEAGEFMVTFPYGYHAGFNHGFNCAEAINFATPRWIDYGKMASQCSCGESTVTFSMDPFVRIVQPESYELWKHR
Method: as §1, §2, §3

| KDM4D demethylation activity, M (KDM4D) | KDM4E demethylation activity, M (KDM4E) | Substance | KDM3A demethylation activity, M (KDM3A) | KDM3C demethylation activity, M (KDM3C) | KDM6B demethylation activity, M (KDM6B) | KDM3B demethylation activity, M (KDM3B) | KDM4A demethylation activity, M (KDM4A) | KDM5D demethylation activity, M (KDM5D) |
| --- | --- | --- | --- | --- | --- | --- | --- | --- |
| ● [red] | ● [red] | KKKATKKmeAAGAGAAK [Peptide H1.5K26me, 15-mer linker histone H1.5 residues 20-34 peptide, mono-methylated K26] | ● [red] | ● [red] | ● [red] | ● [red] | ● [red] | ● [red] |
| ● [red] | – | KKKAAKKmeAGGTPRKA [Peptide H1.2K26me, 15-mer linker histone H1.2 residues 20-34 peptide, mono-methylated K26] | ● [red] | ● [red] | ● [red] | ● [red] | ● [red] | ● [red] |
| ● [red] | – | KKKAKmeKAGATAGKRK [Peptide H1.3K24me, 15-mer linker histone H1.3 residues 20-34 peptide, mono-methylated K24] | ● [red] | ● [red] | ● [red] | ● [red] | ● [red] | ● [red] |
| ● [red] | ● [red] | KKKAKKmeAGATAGKRK [Peptide H1.3K25me, 15-mer linker histone H1.3 residues 20-34 peptide, mono-methylated K25] | ● [red] | ● [red] | ● [red] | ● [red] | ● [red] | ● [red] |
